Results on four compounds are retold here after ChEMBL document CHEMBL4411318, “Discovery of a Series of 2'-α-Fluoro,2'-β-bromo-ribonucleosides and Their Phosphoramidate Prodrugs as Potent Pan-Genotypic Inhibitors of Hepatitis C Virus” (J Med Chem, 2019).

What is called CC50 is the concentration giving 50% cytotoxicity. Broadly, the EC90 is the concentration at which the effect reaches the 90% level. Read a low EC90 as greater potency. The term inhibition denotes how much of the control response was suppressed. For orientation: IC50 means the concentration that inhibits the measured activity by half. A word on the half-life: it is the time in which the quantity being followed falls by half. Read a low half-life as rapid decline. In general, microsomal CLint refers to the capacity of the preparation to metabolise the compound, expressed as a volume cleared per time. The low end stands for slow turnover, the high end for rapid turnover. The term CLint scaled denotes the capacity of the preparation to metabolise the compound, expressed as a volume cleared per time. Higher therefore signals rapid turnover. As a reminder, the Tmax is the time from dosing to the highest level.

One series has as its system PBMC. Kind of series: (§1) Cytotoxicity against human PBMC assessed reduction in cell viability after 5 days by MTT assay. In kind it is cell-based. To be noted: pbmc, 120 h.
In the next series the test system is CCRF-CEM. Kind of series: (§2) Cytotoxicity against human CCRF-CEM assessed reduction in cell viability after 4 days by MTT assay. In kind it is cell-based. As to conditions: ccrf-cem, 96 h.
Series [1] is described as follows: Cytotoxicity against human HuH7 cells assessed reduction in cell viability after 3 to 5 days by MTT assay. Type of series: cell-based, Huh-7. (Tetrazolium assays rely on reduction of a dye to a coloured formazan, in cell work by metabolically active cells.)
Series [2] has as its target RNA-directed RNA polymerase (Hepacivirus hominis) (UniProt O39930). As to conditions: Hepatitis C virus subtype 1b.
Description: Inhibition of NS5B polymerase in wild type HCV genotype 1b infected in human Huh7 replicon cells after 5 days by RT-PCR assay
Series [3] relates to nuclear ribosomal-DNA level. Kind of series: Mitochondrial toxicity in human HepG2 cells assessed as inhibition of nuclear ribosomal-DNA level at 25 uM followed by medium plus drugs replenishment every 3 to 4 days for 14 days relative to control. In kind it is cell-based.
In series [4] the test system is nuclear ribosomal-DNA level. Kind of series: Mitochondrial toxicity in human HepG2 cells assessed as inhibition of nuclear ribosomal-DNA level at 50 uM followed by medium plus drugs replenishment every 3 to 4 days for 14 days relative to control. In kind it is cell-based.
Series [5] can be described thus: Mitochondrial toxicity in human HepG2 cells assessed as reduction in cell viability after 3 days in presence of glucose supplemented media by ATP depletion assay. In kind it is cell-based.
The test system of series [6] is HepG2. As to the kind of experiment: Mitochondrial toxicity in human HepG2 cells assessed as lactic acid production at 50 uM followed by medium plus drugs replenishment every 3 to 4 days for 14 days relative to control. In kind it is cell-based. As to conditions: hepg2, 336 h.
Series [7] in a line: Stability in human plasma assessed as compound remaining at 2 uM after 120 mins by LC/MS/MS analysis. Type of series: ADME, cell-free. To be noted: read-out: Stability.
Series [8] is described as follows: in vitro. To be noted: human, liver microsomes. On the technique in general: Liver microsomes are a subcellular fraction often used to study metabolism.
Description: Half life in human liver microsomes in presence of NADPH regenerating system by LC/MS/MS analysis
Series [9] is described as follows: Half life in human intestinal microsomes by LC/MS/MS analysis. In kind it is ADME, Intestine, Microsome.
The nature of series [10]: in vitro. To be noted: human, liver microsomes. This is another data set of the same source.
Description: Intrinsic clearance in human liver microsomes in presence of NADPH regenerating system by LC/MS/MS analysis
In series [11] the test system is cytochrome c oxidase subunit 2 DNA level. As to the kind of experiment: Mitochondrial toxicity in human HepG2 cells assessed as inhibition of cytochrome c oxidase subunit 2 DNA level at 12.5 uM followed by medium plus drugs replenishment every 3 to 4 days for 14 days relative to control. In kind it is cell-based.
Series [12] concerns Bone marrow cell. Kind of series: Cytotoxicity against human bone marrow cells assessed as inhibition of burst forming unit-erythroid after 14 days by FACS analysis. Type of series: cell-based. To be noted: 336 h. A general note: Flow cytometry measures light scatter and fluorescence of single cells or particles in a stream.
Series [13] has as its system Bone marrow cell. Kind of series: Cytotoxicity against human bone marrow cells assessed as inhibition of colony-forming unit-granulocyte after 14 days by FACS analysis. Type of series: cell-based. As to conditions: 336 h.
For series [14], the system named is nuclear ribosomal-DNA level. Kind of series: in vitro. To be noted: human, HepG2 cells.
Series [15] can be described thus: Mitochondrial toxicity in human HepG2 cells assessed as reduction in cell viability after 14 days in presence of glucose supplemented media by ATP depletion assay. In kind it is cell-based.
Series [16] is described as follows: as §1. Type of series: cell-based. To be noted: PBMC.
Series [17] concerns HepG2. Kind of series: Mitochondrial toxicity in human HepG2 cells assessed as lactic acid production at 12.5 uM followed by medium plus drugs replenishment every 3 to 4 days for 14 days relative to control. In kind it is cell-based. As to conditions: hepg2, 336 h.
A short description of series [18]: in vitro. As to conditions: human, liver microsomes. This is another data set of the same source.
Description: Intrinsic clearance in human liver measured from intrinsic clearance in human liver microsomes in presence of NADPH regenerating system by LC/MS/MS analysis
A short description of series [19]: in vitro. As to conditions: human, liver microsomes. The source holds these as a separate data set.
Description: Stability in human liver microsomes assessed as compound remaining in absence of NADPH regenerating system after 60 mins by LC/MS/MS analysis
A short description of series [20]: Cardiotoxicity against human embryonic stem cell-induced ventricular cardiomyocytes administered on day 7 and measured on day 10 after 30 mins incubation by CellTiter Glo assay. Type of series: toxicity, cell-based, Cardiac muscle cell.
Series [21] can be described thus: Stability in simulated intestinal fluid after 24 hrs by LC/MS/MS analysis. In kind it is ADME. As to conditions: simulated gi fluid.
Series [22] is described as follows: Prodrug activation in Beagle dog liver assessed as assessed as formation of triphosphate form parent nucleoside at 10 mg/kg, po measured at 4 hrs by LC-MS/MS analysis. To be noted: in vivo.
For series [23], the system named is nuclear ribosomal-DNA level. As to the kind of experiment: Mitochondrial toxicity in human HepG2 cells assessed as inhibition of nuclear ribosomal-DNA level at 12.5 uM followed by medium plus drugs replenishment every 3 to 4 days for 14 days relative to control. In kind it is cell-based.
The test system of series [24] is HepG2. Kind of series: Mitochondrial toxicity in human HepG2 cells assessed as lactic acid production at 25 uM followed by medium plus drugs replenishment every 3 to 4 days for 14 days relative to control. In kind it is cell-based. As to conditions: hepg2, 336 h.
Series [25] addresses RNA-directed RNA polymerase (Hepacivirus hominis) (UniProt O39930). As to the kind of experiment: Inhibition of NS5B polymerase in HCV genotype 1b/4a chimeric replicon infected in human HuH7 replicon cells after 5 days by RT-PCR analysis. Type of series: cell-based.
For series [26] the target is unchanged. Kind of series: Inhibition of NS5B polymerase in HCV genotype 1b/5a chimeric replicon infected in human HuH7 replicon cells after 5 days by RT-PCR analysis. In kind it is cell-based.
A short description of series [27]: Drug metabolism in human HuH7 cells assessed as Tmax for NTP formation at 10 uM after 2 to 48 hrs by LC-MS/MS analysis. As to conditions: huh-7, 10 µM. Type of series: ADME, cell-based.
A short description of series [28]: Mitochondrial toxicity in human HepG2 cells assessed as reduction in cell viability after 3 days in presence of galactose supplemented media by ATP depletion assay. In kind it is cell-based.
A short description of series [29]: as §2. In kind it is cell-based. As to conditions: CCRF-CEM cells.
Series [30] is described as follows: Mitochondrial toxicity in human HepG2 cells assessed as reduction in cell viability after 14 days in presence of galactose supplemented media by ATP depletion assay. Type of series: cell-based.
Series [31] in a line: Drug uptake in Beagle dog liver at 10 mg/kg, po measured up to 4 hrs by LC-MS/MS analysis. As to conditions: in vivo, BLD = below limit of detection.
For series [32], the target named is RNA-directed RNA polymerase (Hepacivirus hominis) (UniProt O39930). As to the kind of experiment: Inhibition of NS5B polymerase in HCV genotype 2a infected in human HuH7 replicon cells after 5 days by RT-PCR analysis. In kind it is cell-based. To be noted: Hepatitis C virus subtype 2a.
Sequence of RNA-directed RNA polymerase (Hepacivirus hominis) (O39930 1-591): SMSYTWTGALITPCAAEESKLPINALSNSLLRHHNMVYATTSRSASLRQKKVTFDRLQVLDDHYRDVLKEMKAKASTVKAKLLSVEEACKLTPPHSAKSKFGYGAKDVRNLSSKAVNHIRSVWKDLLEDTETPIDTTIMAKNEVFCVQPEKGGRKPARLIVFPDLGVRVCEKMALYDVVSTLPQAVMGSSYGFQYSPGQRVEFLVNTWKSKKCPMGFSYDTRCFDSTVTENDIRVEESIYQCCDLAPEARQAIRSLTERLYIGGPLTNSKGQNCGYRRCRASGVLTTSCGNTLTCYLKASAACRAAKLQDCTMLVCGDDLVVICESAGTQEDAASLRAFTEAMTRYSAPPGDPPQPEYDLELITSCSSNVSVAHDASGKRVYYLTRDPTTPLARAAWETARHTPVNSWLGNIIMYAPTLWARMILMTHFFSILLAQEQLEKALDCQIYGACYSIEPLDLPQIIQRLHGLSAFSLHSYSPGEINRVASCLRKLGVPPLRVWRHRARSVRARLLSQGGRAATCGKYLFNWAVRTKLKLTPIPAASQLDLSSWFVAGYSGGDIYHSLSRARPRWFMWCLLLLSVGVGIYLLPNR
Series [33] relates to cytochrome c oxidase subunit 2 DNA level. Kind of series: Mitochondrial toxicity in human HepG2 cells assessed as inhibition of cytochrome c oxidase subunit 2 DNA level at 50 uM followed by medium plus drugs replenishment every 3 to 4 days for 14 days relative to control. Type of series: cell-based.
Series [34] shares this test system. As to the kind of experiment: Mitochondrial toxicity in human HepG2 cells assessed as inhibition of cytochrome c oxidase subunit 2 DNA level followed by medium plus drugs replenishment every 3 to 4 days for 14 days relative to control. In kind it is cell-based.
A short description of series [35]: Cytotoxicity in human HepaRG cells assessed as reduction in cell viability incubated for 14 days by CellTiter-Glo assay. Type of series: cell-based.
Series [36] can be described thus: Nephrotoxicity in human HK2 cells after 72 hrs by Hoechst 33342/HCS live/dead green dye-based assay. In kind it is toxicity, cell-based, HK-2.
A short description of series [37]: Drug metabolism in human primary hepatocytes assessed as Tmax for NTP formation at 10 uM after 2 to 48 hrs by LC-MS/MS analysis. Type of series: ADME, cell-based, Hepatocyte.
Series [38] concerns the target RNA-directed RNA polymerase (Hepacivirus hominis) (UniProt O39930). As to conditions: genotype 1b/3a.
Description: Inhibition of NS5B polymerase in HCV genotype 1b/3a chimeric replicon infected in human HuH7 replicon cells after 5 days by RT-PCR analysis
Series [39] deals with HepG2. As to the kind of experiment: Mitochondrial toxicity in human HepG2 cells 10 uM followed by medium plus drugs replenishment every 3 to 4 days for 14 days relative to control. Type of series: cell-based. As to conditions: hepg2, 336 h.
For series [40], the system named is cytochrome c oxidase subunit 2 DNA level. Kind of series: Mitochondrial toxicity in human HepG2 cells assessed as inhibition of cytochrome c oxidase subunit 2 DNA level at 10 uM followed by medium plus drugs replenishment every 3 to 4 days for 14 days relative to control. In kind it is cell-based.
The subject of series [41] is nuclear ribosomal-DNA level. As to the kind of experiment: in vitro. To be noted: human, HepG2 cells. The source holds these as a separate data set.

Molecules are shown by their SMILES. Some results are limits rather than exact numbers.

Regarding `C[C@@]1(O)[C@H](O)[C@@H](CO)O[C@H]1n1ccc(N)nc1=O`, the CC50 was 60 µM with PBMC, 22 µM in the series with CCRF-CEM and greater than 100 µM in [1]. The compound further came in with an EC90 in [2] of 9.9 µM.
For the compound `CC(C)OC(=O)[C@H](C)N[P@](=O)(OC[C@H]1O[C@@H](n2ccc(=O)[nH]c2=O)[C@@](F)(Br)[C@@H]1O)Oc1ccccc1` (single isomer, unassigned), the inhibition at 336 h, 25 µM in series [3] came to 39%. The inhibition at 336 h, 50 µM in series [4] is 72%; in series [33] it was 58%. In addition, the IC50 at 3 days in series [5], in [20] and in [28] was greater than 100 µM each time. The Activity with HepG2 [6] is recorded as 220%; in the series on HepG2 [17], 90%; in the series on HepG2 [24], 120%. Besides, in series [7], the remaining at 2 h, 2 µM turned out to be 90%. The half-life in the series “in vitro [8]” was 19.7 min; in series [9], greater than 145 min. The microsomal CLint in the series “in vitro [10]” turned out to be 70.2 µL/min/mg. In addition, the inhibition at 336 h, 12.5 µM was 23% in series [11] and 11% in [23]. The IC50 in the series with Bone marrow cell [12] amounted to 72 µM; in the series with Bone marrow cell [13] it was 76 µM. Further, the IC50 at 14 days was 32 µM in series [14], greater than 100 µM in series [15] and greater than 100 µM in series [30]. The CC50 at 120 h in [16] was greater than 100 µM. The compound also yielded a CLint scaled in the series “in vitro [18]” of 63.2 mL/min/kg. For the same compound, the remaining at 1 h in the series “in vitro [19]” was found to be 3.7%. The Stability entry in series [21] was “Stable”. For the same compound, the Drug metabolism in series [22] is 20130 ng/mL. The EC90 was 0.13 µM in [25], 0.083 µM in series [26], 0.074 to 0.28 µM in series [2] and 0.077 µM in series [32]. Further, the Tmax in series [27] is 12 h. In [29], the half-maximal cytotoxic concentration (CC50) at 96 h is greater than 100 µM. In series [1], this compound displayed a CC50 greater than 10 µM. The Drug uptake entry in series [31] was “Bld”.
In the case of `CC(C)OC(=O)[C@H](C)N[P@](=O)(OC[C@H]1O[C@@H](n2ccc(=O)[nH]c2=O)[C@](C)(F)[C@@H]1O)Oc1ccccc1` [SOFOSBUVIR], the inhibition at 336 h, 50 µM was found to be 58% in [4] and 44% in series [33]. Further, the Activity amounted to 180% in the series with HepG2 [6] and 79% in the series on HepG2 [17]. Further, the inhibition at 336 h, 12.5 µM came to 6.7% in [11] and 3.1% in series [23]. Also, the figures for the concentration for half-maximal inhibition (IC50) at 14 days in series [14] and in series [34] were 45 µM and greater than 50 µM, respectively. For the same compound, the 50% cytotoxic concentration (CC50) at 120 h in [16] was greater than 100 µM. In series [35], the CC50 at 336 h is 44 µM. Besides, the CC50 at 0.5 h in series [20] is greater than 100 µM. The compound further had a CC50 at 72 h in [36] greater than 300 µM. In series [37], the Tmax stood at 12 h. Also, the EC90 was 0.15 µM in series [25], 0.37 µM in series [38], 0.15 to 0.9 µM in series [2] and 0.13 µM in series [32]. For the same compound, the CC50 at 96 h in series [29] was greater than 100 µM. In addition, the CC50 in series [1] is greater than 100 µM.
With `Nc1ccn([C@H]2CC[C@@H](CO)O2)c(=O)n1` [ZALCITABINE], in the series with HepG2 [39], the Activity is 200%. In addition, the results for the inhibition at 336 h, 10 µM in series [40] and in series [41] were 84% and 50%, respectively. In addition, the IC50 at 14 days in series [14] and in series [34] was less than 10 µM throughout.
